Experimental data from ChEMBL document CHEMBL1146300, “High affinity Grb2-SH3 domain ligand incorporating Cbeta-substituted prolines in a Sos-derived decapeptide” (Bioorg Med Chem, 2007).
Calls of active or inactive are those of the source. The rule behind the calls is not given here. Numbered stars: 1 amine (or outer) side, 2 acyl side, 3 side chain; on linkers, the order of the positions; unused ones are H or OH. Square brackets hold non-standard residues; d marks the D form. Peptide text beside a SMILES is read from it. X4 = O=C([C@@H]1C(CS(=O)(=O)c2ccccc2)CCN1[*:1])[*:2]; X3 = C[S+]([O-])CC1CCN([*:1])[C@@H]1C(=O)[*:2]; X2 = O=C(O)CC1CCN([*:1])[C@@H]1C(=O)[*:2]; X6 = CC(C)C1CCN([*:1])[C@@H]1C(=O)[*:2]; X5 = O=C([C@@H]1C(CO)CCN1[*:1])[*:2]; X1 = CC1CCN([*:1])[C@@H]1C(=O)[*:2]

Target: Growth factor receptor-bound protein 2 (Homo sapiens, UniProt P62993)
Assay: Binding affinity to recombinant Grb2-SH3 domain by fluorescence spectroscopy

Row | Kd [µM] | Activity | Compound
1 | < 0.52 |  | CC(=O)N[C@H](C(=O)N1CCC[C@H]1C(=O)N1CCC[C@H]1C(=O)N1CCC[C@H]1C(=O)N1CCC(C)[C@H]1C(=O)N1CCC[C@H]1C(=O)N1CCC[C@H]1C(=O)N[C@@H](CCCNC(=N)N)C(=O)N[C@@H](CCCNC(=N)N)C(=O)N[C@@H](CCCNC(=N)N)C(=O)N[C@H](C(=O)N1CCC[C@H]1C(=O)N1CCC[C@H]1C(=O)N1CCC[C@H]1C(=O)N1CCC(C)[C@H]1C(=O)N1CCC[C@H]1C(=O)N1CCC[C@H]1C(=O)N[C@@H](CCCNC(=N)N)C(=O)N[C@@H](CCCNC(=N)N)C(=O)N[C@@H](CCCNC(=N)N)C(=O)N[C@@H](CCCCN)C(N)=O)C(C)C)C(C)C (stereo partly drawn) (Ac-VPPP[X1]PPRRRVPPP[X1]PPRRRK-NH2)
2 | 11.6 |  | CC(C)[C@H](N)C(=O)N1CCC[C@H]1C(=O)N1CCC[C@H]1C(=O)N1CCC[C@H]1C(=O)N1CCC(C)[C@H]1C(=O)N1CCC[C@H]1C(=O)N1CCC[C@H]1C(=O)N[C@@H](CCCN=C(N)N)C(=O)N[C@@H](CCCN=C(N)N)C(=O)N[C@@H](CCCN=C(N)N)C(=O)O (stereo partly drawn) (H-VPPP[X1]PPRRR-OH)
3 |  | inactive | CC(C)[C@H](N)C(=O)N1CCC[C@H]1C(=O)N1CCC[C@H]1C(=O)N1CCC[C@H]1C(=O)N1CCC(CC(=O)O)[C@H]1C(=O)N1CCC[C@H]1C(=O)N1CCC[C@H]1C(=O)N[C@@H](CCCNC(=N)N)C(=O)N[C@@H](CCCNC(=N)N)C(=O)N[C@@H](CCCNC(=N)N)C(=O)O (stereo partly drawn) (H-VPPP[X2]PPRRR-OH)
4 |  | inactive | CC(C)[C@H](N)C(=O)N1CCC[C@H]1C(=O)N1CCC[C@H]1C(=O)N1CCC[C@H]1C(=O)N1CCC(C[S+](C)[O-])[C@H]1C(=O)N1CCC[C@H]1C(=O)N1CCC[C@H]1C(=O)N[C@@H](CCCNC(=N)N)C(=O)N[C@@H](CCCNC(=N)N)C(=O)N[C@@H](CCCNC(=N)N)C(=O)O (stereo partly drawn) (H-VPPP[X3]PPRRR-OH)
5 |  | inactive | CC(C)[C@H](N)C(=O)N1CCC[C@H]1C(=O)N1CCC[C@H]1C(=O)N1CCC[C@H]1C(=O)N1CCC(CS(=O)(=O)c2ccccc2)[C@H]1C(=O)N1CCC[C@H]1C(=O)N1CCC[C@H]1C(=O)N[C@@H](CCCNC(=N)N)C(=O)N[C@@H](CCCNC(=N)N)C(=O)N[C@@H](CCCNC(=N)N)C(=O)O (stereo partly drawn) (H-VPPP[X4]PPRRR-OH)
6 |  | inactive | CC(C)[C@H](N)C(=O)N1CCC[C@H]1C(=O)N1CCC[C@H]1C(=O)N1CCC[C@H]1C(=O)N1CCC(CO)[C@H]1C(=O)N1CCC[C@H]1C(=O)N1CCC[C@H]1C(=O)N[C@@H](CCCNC(=N)N)C(=O)N[C@@H](CCCNC(=N)N)C(=O)N[C@@H](CCCNC(=N)N)C(=O)O (stereo partly drawn) (H-VPPP[X5]PPRRR-OH)
7 |  | inactive | CC(C)C1CCN(C(=O)[C@@H]2CCCN2C(=O)[C@@H]2CCCN2C(=O)[C@@H]2CCCN2C(=O)[C@@H](N)C(C)C)[C@@H]1C(=O)N1CCC[C@H]1C(=O)N1CCC[C@H]1C(=O)N[C@@H](CCCNC(=N)N)C(=O)N[C@@H](CCCNC(=N)N)C(=O)N[C@@H](CCCNC(=N)N)C(=O)O (stereo partly drawn) (H-VPPP[X6]PPRRR-OH)
8 |  | inactive | H-VPPPPPPRRR-OH
